# Tested on: human MDC and PDC subsets
# Assay: Activation of human MDC and PDC subsets: phagocytosis, phenotype, cytokine release
# Type: cell-based
# Procedure: Blood CD 11c^+ myeloid DCs (MDCs) were generated from CD 14^+ mononuclear cells by magnetic cell sorting and cultured for 5 days in Iscove's modified medium, containing 10% fetal bovine serum, 50 micromolar 2-mercaptoethanol, sodium pyruvate (1 mM), 2 mM L-glutamine, HEPES (10 mM), and 50 micrograms/ml gentamycin in the presence of 50 ng/ml rHuman GM-CSF and 200 U/ml rHuman IL-4. Immature MDCs were cultured for 24 hours with 1000 ng/ml trimeric human CD40 ligand-leucine-zipper fusion protein to obtain mature DCs. CD 123^+ plasmacytoid DCs (PDCs) were isolated using the BDCA-4 isolation kit. Purity of CD 123^+ cells was >96%. For mature PDCs, immature DCs were cultured with the trimeric human CD40 ligand as above and 10 ng/ml IL-3. […] The expression of HLA Class II, CD80 and CD86 was high in both immature and mature DCs. Murine lung CD 11c^+ DCs (between 5 to 7% positive for CD8alpha and between 30 to 35% positive for Gr-1) were isolated by magnetic cell sorting. For phagocytosis, DCs were pre-exposed to 100 ng/ml TA1 for 60 minutes and subsequently incubated at 37° C. with Aspergillus conidia for an additional 60 minutes. The percentage of internalization was calculated and photographs were taken. In assessing functional maturation and cytokine determination, purified DCs were resuspended in Iscove's medium (with no serum but with polymixin B, to avoid non-specific activation by serum components and endotoxin) and pulsed with 100 ng/ml TA1 for 24 hours either alone or together with TLR ligands or unopsonized Aspergillus conidia. Cell surface phenotype was assessed by reacting samples with FITC- or PE-conjugated rat anti-mouse antibodies. Unrelated hisotype matched antibodies were used as control. The levels of TNF-alpha, IL-10, IL-12 p70, IFN-alpha and IL-8 in culture supernatants were determined by Kit ELISAs. The detection limits (pg/ml) of the assays were <3 (human) and <32 (murine) for TNF-alpha, <12 (murine) and <5 (human) for IL-10, <16 (murine) and <3 (human) for IL-12 p70 and <25 (human) IL-8. For human IFN-alpha <3 ng/ml. For enumeration of cytokine-producing cells, an ELISPOT assay was used on purified CD4^+ T cells and DCs from lungs.
substance,measurement,setting,value
"Ac-Ser-Asp-Ala-Ala-Val-Asp-Thr-Ser-Ser-Glu-Ile-Thr-Thr-Lys-Asp-Leu-Lys-Glu-Lys-Lys-Glu-Val-Glu-Glu-Ala-Glu-Asn-O (Ac-SDAAVDTSSEITTKDLKEKKEVEEAEN-OH) [TA1, naturally occurring thymic peptide]",activation of human MDC and PDC subsets,100 ng/ml,activates
same,phagocytic activity of immature DCs,"Aspergillus conidia, 100 ng/ml pre-exposure 60 minutes",increased
same,IFN-alpha production,"PDCs, in response to the TLR9 ligand CpG",significantly potentiated
same,DC morphology,immature MDCs,more cytoplasmic projections
same,release of IL-12 p70,"immature MDCs, in response to conidia",significantly increase
same,release of IL-12 p70,"immature MDCs, in response to zymosan",significantly increase
same,release of IL-10,"immature PDCs, in response to conidia",significantly increase
same,HLA Class II antigens and costimulatory molecule expression,in response to conidia,up-regulate

# From patent US8389680B2, “Treatment of Aspergillus infections with alpha thymosin peptides” (SciClone Pharmaceuticals, Inc., priority 2003, dated 2013)
